Experimental data: patent publication US20080038288A1, “Prevention of damage in hippocampus of fetus/newborn infant due to maternal gestational hypertension” (priority 2006, published 2008)
Marks after values point to notes of the source that are not given here.

Assays:
[1] = system: E21 day rat embryo hippocampal cells; assay: Flow cytometry of hippocampal cell cycle in E21 embryos of L-NAME gestational hypertension rats; assay type: in vivo; conditions: dam given L-NAME 60 mg/kg/day i.p. plus gastric feeding E14-20, mean ± sx
Excerpt: (§1) Animal groups and administration of medication. Gestational hypertension (GH) was produced in rats using the L-NAME (a type of NOS inhibitor) method of Yallampalli et al. [Yallampalli et al., Am J Obstet Gynecol., 1993, 169:1316-1320]. Forty mature (11-12 weeks old) SD female rats weighing 200-230 g; 10 mature (13-15 weeks old) SD male rats weighing 250-300 g. At a ratio of […], the rats were paired in cages, on the second day the female rats' vaginal secretions were observed (smear technique) and those containing sperm were considered to be at day 0 of pregnancy (E0). […] L-NAME was given by two injections at a total dose of 60 mg/kg/day. Two hours after each injection, the pregnant rats received gastric feeding of distilled water, L-arginine or GLSs. The GLSs were provided by Kindway International Ltd./Holistol International Ltd., license number GANSPSP04040104. The L-arginine was purchased from the Amresco Company.
(§2) Preparation of histological materials. Some of the pregnant rats were anesthetized at E21 day with an i.p. injection of 1% pentobarbital (35 mg/kg). The embryos were removed from the uterus. […]
Hippocampal tissue separated from E21 day rat embryos was placed in a culture dish and sheared into pieces, 0.01 mol/L phosphate buffered saline (PBS) was added and repeatedly triturated, filtered through a 100-mesh screen, and the single-cell suspension obtained was fixed in 75% alcohol at 4° C. to await testing. Before testing, the extracted cell suspension was centrifuged to remove the supernatant, 100 μL RNase (0.1 mg/L) added, placed at 37° C. for 30 min, after rinsing with normal saline, propidium iodine (PI) stain (0.05 mg/L, 0.03% Triton X-100 0.5 mL) was added, placed at 4° C. protected from light to react for 30 min, then measured. In flow cytometry, a 488 nm laser used Cell Fit software to collect 10,000 cells/specimen cell cycle data was analyzed and one-way ANOVA testing performed for statistical processing.

[2] = system: hippocampus dentate gyrus proliferating cells; assay: BrdU labeling, positive cell counts at hippocampus dentate gyrus of P30 rats born to L-NAME rats; assay type: in vivo, rat; conditions: dam given L-NAME plus gastric feeding E14-20, mean ± sd
Excerpt: as §1
Preparation of histological materials. Some of the pregnant rats were anesthetized at E21 day with an i.p. injection of 1% pentobarbital (35 mg/kg). The embryos were removed from the uterus. Some were placed in a freezer dish and the hippocampal tissue was removed from the brains of the embryos, placed in an Eppendorf tube and stored at −80° C. to await testing. The rest of the embryonic brains were fixed in a 4% paraformaldehyde solution. […]

hippocampus microvessels = assay: Hippocampal microvessel density, vWF immunohistochemical staining, Weidner counting; assay type: in vivo, rat; conditions: dam given L-NAME plus gastric feeding E14-20, mean ± sd
Excerpt: as §1, §2
Hippocampal microvessel density: The Weidner counting method was used to determine the microvessel standard [Weidner et al., Am J Pathol. […] Under a light microscope (200×), microvessel numbers were counted in five visual fields. […]

[3] = system: hippocampus CA1, CA3 and DG neurons; assay: Morphometric analysis: hippocampal cell layer thickness and neuron body count, neutral red staining; assay type: in vivo, rat; conditions: P30 rats, mean ± sd
Excerpt: as §1
Preparation of histological materials. Some of the pregnant rats were anesthetized at E21 day with an i.p. injection of 1% pentobarbital (35 mg/kg). The embryos were removed from the uterus. Some were placed in a freezer dish and the hippocampal tissue was removed from the brains of the embryos, placed in an Eppendorf tube and stored at −80° C. to await testing. The rest of the embryonic brains were fixed in a 4% paraformaldehyde solution. Another group of pregnant rats went into normal labor, and the young rats were fed and raised until 30 days of […] (P30). Some of the young rats received the preceding pentobarbital anesthesia and their hippocampal tissue was placed in a freezer dish and stored to await testing. The rest of the rats in the P30 group received pentobarbital anesthesia as above, their chests were opened and an aortic cannula inserted through the left ventricle. One group of young rats was first quickly perfused with normal saline and then 4% paraformaldehyde 0.1 mol/L phosphate buffer (PB) (pH 7.4). Then the fixed cerebral corona was continuously frozen and sectioned at a thickness of 15 μm. Sectioning started at the alveus of the hippocampus, one section every 300 μm, and six sections were taken from each brain, for a collection of six sets of sections.
Morphometric analysis. Various cell layer thicknesses from various areas of the hippocampus were measured and a neuron body count obtained. Under a low-magnification microscope, two visual fields were randomly selected from the CA1, CA3 and DG regions. Under a high-magnification microscope (200×), the cell layer thickness was measured and the number of nucleated neuron bodies counted. The cell layer thicknesses or body numbers are the averages of two visual fields.

For `N=C(N)NCCC[C@H](N)C(=O)O` [L-arg, L-arginine], the “Percentage of hippocampal cells in G1/G0 phase” value [1] was 82.74 ± 2.75^h %, the “Percentage of hippocampal cells in G2/M phase” value [1] was 1.44 ± 0.44^i % and the “Percentage of hippocampal cells in S phase” value [1] was 15.34 ± 2.92^g %. For the same compound, the “BrdU positive cell counts at hippocampus dentate gyrus” value [2] was 38.00 ± 1.04^c, the “Microvessel density at the hippocampus, E21” value (hippocampus microvessels; E21 embryos) was 39.80 ± 4.79^e and the “Microvessel density at the hippocampus, P30” value (hippocampus microvessels; P30 rats) was 75.25 ± 3.86^f. For the same compound, the “Hippocampal cell layer thickness CA1” value ([3]; CA1 area) was 115.23 ± 9.49^m μm, the “Neuron body counts CA1” value ([3]; CA1 area) was 31.80 ± 1.15^n num and the “Hippocampal cell layer thickness CA3” value ([3]; CA3 area) was 90.64 ± 6.18^o μm. The “Neuron body counts CA3” value ([3]; CA3 area) was 23.00 ± 0.83^p num and the “Hippocampal cell layer thickness DG” value ([3]; DG area) was 64.87 ± 4.42^q μm.
